The record followed here is patent publication US20080221088A1, “3,4-Substituted Thiazoles as Ampk Activators” (priority 2005, published 2008).

Broadly, the melting point is the temperature of the solid-liquid transition.

For data set [1], the system named is AMPK. Put plainly: AMPK activation potential, cell based ELISA with p-AMPK specific antibody, Hep G2 cells. As to conditions: HepG-2 cells, 24 hours incubation, normalized to metformin at 2 mM as 100%. As for the experimental part:
(§1) AMPK activation potential percentages are obtained by normalizing the values obtained at the concentrations in the range of 2 nM-10 μM with that of metformin by considering the values obtained for metformin at 2 mM concentrations as 100%.
(§2) AMPK activation potential of the compounds of formula (I) was evaluated using a cell based ELISA approach. Skeletal muscle (L6 muscle) and hepatoma (Hep G2) liver cells were cultured for 48 hours prior to drug addition at various concentrations. Twenty four (24) hours later, the cells were fixed and the ELISA plate developed following standard protocol using p-AMPK specific antibody.
(§3) Various cell lines such as HepG2 and L6 were revived from glycerol stocks (ATCC). The cells were maintained in a T 75 culture flask-containing medium (DMEM+10% fetal calf serum). On reaching a confluence of 70 to 80%, the cells was seeded in a 96 well plate at a density of 10×10^3 cells per well in DMEM+10% FCS medium. The plates are then incubated at 37° C. with 5% CO2 for 48 hours. Various concentrations of drugs were prepared in DMSO and diluted to required concentration with the medium and incubated at 37° C. with 5% CO2 for 24 hours. Cells were fixed with 4% formaldehyde in PBS for 30 minutes at 25-35° C. and washed three times with PBS containing 0.1% Triton X-100. Endogenous peroxidase was quenched with 0.6% H2O2 in PBS-T for 30 minutes and washed three times in PBS-T. Then the cells were blocked with 10% FCS in PBS-T for 1 hour. The cells were incubated for 8-12 hours with various concentrations of primary antibody in PBS-T containing 5% BSA at 4° C. The cells were then washed three times with PBS-T for 5 minutes and incubated with secondary antibody (HRP conjugated 1:500 in PBS-T with 5% BSA for 1 hour at 25-35° C. The cells were washed three times with PBS-T for 5 minutes and twice with PBS. The cells were incubated with 100 μl TMB/H2O2 color developing solution for 15 minutes and the reaction was stopped with 50 μl of 1M H2SO4. Then the plate was read at 460 nm using ELISA plate reader.
(§4) (AMPK activation potential percentages are obtained by normalizing the values obtained at 10 μM concentration with that of metformin by considering the values obtained for metformin at 2 mM concentrations as 100%).
A general note: An ELISA detects its analyte on a solid surface through an enzyme-linked reagent.

Data set [2] has as its system AMPK. The experiment in a line: AMPK activation potential, cell based ELISA with p-AMPK specific antibody, L6 muscle cells. Conditions: 24 hours incubation, normalized to metformin at 2 mM as 100%. As for the experimental part:
as §1, §2, §3, §4

The compound `O=C(O)Cc1csc(Nc2ccc(Br)c(F)c2)n1` [Example 2-g, [2-(4-Bromo-3-fluoro-phenylamino)-thiazol-4-yl]-acetic acid] returned a melting point of 176 to 177 °C.

`COc1ccc(CNC(=O)Cc2csc(Nc3ccc(Cl)c(C(F)(F)F)c3)n2)cc1` [Example 4-k, 2-[2-(4-Chloro-3-trifluoromethyl-phenylamino)-thiazol-4-yl]-N-(4-methoxy-benzyl)-acetamide] gave a melting point of 65 to 70 °C.

Regarding `O=C(O)Cc1csc(Nc2ccc(Cl)c(C(F)(F)F)c2)n1` [Example 2, [2-(4-Chloro-3-trifluoromethyl-phenylamino)-thiazol-4-yl]-acetic acid], in the data set on AMPK [1], the “AMPK % activation (at 10 μM) HepG-2 muscle cells” value is 102.69%. Further, in the data set on AMPK [2], the “AMPK % activation (at 10 μM) L6 muscle cells” value was 91.56%.

The compound `O=C(Cc1csc(Nc2ccc(Cl)c(C(F)(F)F)c2)n1)Nc1ccc(F)cc1` [Example 4-c, 2-[2-(4-Chloro-3-trifluoromethyl-phenylamino)-thiazol-4-yl]-N-(4-fluoro-phenyl)-acetamide] gave a melting point of 146 to 148 °C.

For the compound `O=C(Cc1csc(Nc2ccc(Cl)c(C(F)(F)F)c2)n1)Nc1nccs1` [Example 4-g, 2-[2-(4-Chloro-3-trifluoromethyl-phenylamino)-thiazol-4-yl]-N-thiazol-2-yl-acetamide], the melting point was 196 to 198 °C.

`O=C(O)c1csc(Nc2ccc(Cl)c(C(F)(F)F)c2)n1` [Example 5, 2-(4-Chloro-3-trifluoromethyl-phenylamino)-thiazole-4-carboxylic acid] came in with a melting point of 254 to 256 °C.

`CCOC(=O)Cc1csc(Nc2ccc(Cl)c(C(F)(F)F)c2)n1` [Example 1, [2-(4-Chloro-3-trifluoromethyl-phenylamino)-thiazol-4-yl]-acetic acid ethyl ester] gave a melting point of 150 to 152 °C. Moreover, the “AMPK % activation (at 10 μM) HepG-2 muscle cells” value in the data set with AMPK [1] is listed as 89%. Moreover, in the data set on AMPK [2], the “AMPK % activation (at 10 μM) L6 muscle cells” value is 88.2%.

For the compound `Cc1ccc(Nc2nc(CC(=O)O)cs2)cc1Cl` [Example 2-b, [2-(3-Chloro-4-methyl-phenylamino)-thiazol-4-yl]-acetic acid], the melting point is 142 to 144 °C.

The compound `NNC(=O)Cc1csc(Nc2ccc(Cl)c(C(F)(F)F)c2)n1` [Example 3-b, [2-(4-Chloro-3-trifluoromethyl-phenylamino)-thiazol-4-yl]-acetic acid hydrazide] had a melting point of 115 to 118 °C.

Turning to `O=C(O)Cc1csc(Nc2ccc(Br)c(C(F)(F)F)c2)n1` [Example 2a, [2-(4-Bromo-3-trifluoromethyl-phenylamino)-thiazol-4-yl]-acetic acid], in the data set on AMPK [1], the “AMPK % activation (at 10 μM) HepG-2 muscle cells” value is 91.3%. For the same compound, the “AMPK % activation (at 10 μM) L6 muscle cells” value with AMPK [2] was 83.4%.

As to `O=C(Cc1csc(Nc2ccc(Cl)c(C(F)(F)F)c2)n1)N1CCOCC1` [Example 4-i, 2-[2-(4-Chloro-3-trifluoromethyl-phenylamino)-thiazol-4-yl]-1-morpholin-4-yl-ethanone], the melting point lay within 210 to 211 °C.

Consider `COc1ccc(NC(=O)Cc2csc(Nc3ccc(Cl)c(C(F)(F)F)c3)n2)cc1` [Example 4-a, 2-[2-(4-Chloro-3-trifluoromethyl-phenylamino)-thiazol-4-yl]-N-(4-methoxy-phenyl)-acetamide], for which the melting point is 179 to 180 °C.

The compound `CCOC(=O)Cc1csc(Nc2ccc(Br)c(C(F)(F)F)c2)n1` [Example 1-a, [2-(4-Bromo-3-trifluoromethyl-phenylamino)-thiazol-4-yl]-acetic acid ethyl ester] showed a melting point of 161 to 164 °C.

As to `Cc1ccc(Nc2nc(CC(=O)O)cs2)cc1F` [Example 2-e, [2-(3-Fluoro-4-methyl-phenylamino)-thiazol-4-yl]-acetic acid], the melting point was in the range of 147 to 148 °C.

`O=C(Cc1csc(Nc2ccc(Cl)c(C(F)(F)F)c2)n1)Nc1ccc(Cl)c(C(F)(F)F)c1` [Example 4, N-(4-Chloro-3-trifluoromethyl-phenyl)-2-[2-(4-chloro-3-trifluoromethyl-phenylamino)-thiazol-4-yl]-acetamide] showed a melting point of 108 to 112 °C.

In turn, `O=C(Cc1csc(Nc2ccc(Cl)c(C(F)(F)F)c2)n1)Nc1cccnc1` [Example 4-h, 2-[2-(4-Chloro-3-trifluoromethyl-phenylamino)-thiazol-4-yl]-N-pyridin-3-yl-acetamide] displayed a melting point of 191 to 192 °C.

Compound `O=C(O)Cc1csc(Nc2ccc(F)c(C(F)(F)F)c2)n1` [Example 2-h, [2-(4-Fluoro-3-trifluoromethyl-phenylamino)-thiazol-4-yl]-acetic acid] registered a melting point of 167 to 169 °C.

For `CSc1ccc(NC(=O)Cc2csc(Nc3ccc(Cl)c(C(F)(F)F)c3)n2)cc1` [Example 4-e, 2-[2-(4-Chloro-3-trifluoromethyl-phenylamino)-thiazol-4-yl]-N-(4-methylsulfanyl-phenyl)-acetamide], the melting point lay in the range of 151 to 152 °C.

The compound `CC(=O)c1ccc(NC(=O)Cc2csc(Nc3ccc(Cl)c(C(F)(F)F)c3)n2)cc1` [Example 4-b, N-(4-Acetyl-phenyl)-2-[2-(4-chloro-3-trifluoromethyl-phenylamino)-thiazol-4-yl]-acetamide] had a melting point of 194 to 195 °C.

`CC(=O)Nc1ccc(NC(=O)Cc2csc(Nc3ccc(Cl)c(C(F)(F)F)c3)n2)cc1` [Example 4-f, N-(4-Acetylamino-phenyl)-2-[2-(4-chloro-3-trifluoromethyl-phenylamino)-thiazol-4-yl]-acetamide] yielded a melting point of 262 to 263 °C.

For `O=C(Cc1csc(Nc2ccc(Cl)c(C(F)(F)F)c2)n1)N1CCSCC1` [Example 4-j, 2-[2-(4-Chloro-3-trifluoromethyl-phenylamino)-thiazol-4-yl]-1-thiomorpholin-4-yl-ethanone], the melting point fell in the range of 185 to 187 °C.

`O=C(Cc1csc(Nc2ccc(Cl)c(C(F)(F)F)c2)n1)Nc1ccncc1` [Example 4-d, 2-[2-(4-Chloro-3-trifluoromethyl-phenylamino)-thiazol-4-yl]-N-pyridin-4-yl-acetamide]: the melting point was in the range of 178 to 180 °C.

For the compound `CC(C)(CC(=O)O)c1csc(Nc2ccc(Cl)c(C(F)(F)F)c2)n1` [Example 2-j, 3-[2-(4-Chloro-3-trifluoromethyl-phenylamino)-thiazol-4-yl]-3-methyl-butyricacid], the melting point fell in the range of 160 to 165 °C.

`NC(=O)Cc1csc(Nc2ccc(Cl)c(C(F)(F)F)c2)n1` [Example 3c, 2-[2-(4-Chloro-3-trifluoromethyl-phenylamino)-thiazol-4-yl]-acetamide] had a melting point of 205 to 207 °C. For the same compound, the “AMPK % activation (at 10 μM) HepG-2 muscle cells” value with AMPK [1] came out at 102.43%. Also, the “AMPK % activation (at 10 μM) L6 muscle cells” value in the data set on AMPK [2] turned out to be 88.1%.

In turn, `Cc1ccc(Nc2nc(CC(=O)O)cs2)cc1C(F)(F)F` [Example 2-i, [2-(4-Methyl-3-trifluoromethyl-phenylamino)-thiazol-4-yl]-acetic acid] came in with a melting point of 154 to 155 °C.

`CNC(=O)Cc1csc(Nc2ccc(Cl)c(C(F)(F)F)c2)n1` [Example 3, 2-[2-(4-Chloro-3-trifluoromethyl-phenylamino)-thiazol-4-yl]-N-methyl-acetamide] returned a melting point of 148 to 150 °C. Also, the “AMPK % activation (at 10 μM) HepG-2 muscle cells” value with AMPK [1] turned out to be 102.14%. Also, the “AMPK % activation (at 10 μM) L6 muscle cells” value in the data set on AMPK [2] is recorded as 101.20%.
